Experimental data from article PMC6541917 (Journal of medicinal chemistry, 2018).

Assays:
MT-4 cells = details: ratio of CC50 to IC50
HIV-1NL4–3 [1] = experiment: antiviral assay in MT-4 human T-lymphocytes exposed to HIV-1NL4–3; format: cell-based; details: Human immunodeficiency virus 1, MT4, in Homo sapiens, read-out: antiviral IC50
HIV-1APV^R5 μM = format: cell-based; details: HIV-1APV^R5 μM compared to wild-type HIV-1NL4–3
HIV-1NL4–3 [2] = experiment: antiviral p24 Gag assay in MT-4 cells, wild-type virus; format: cell-based; details: Human immunodeficiency virus 1, MT4, read-out: mean IC50 ± SD
HIV-1ATV^R5μM = format: cell-based; details: HIV-1ATV^R5μM compared to wild-type HIV-1NL4–3
in vitro = details: human
HIV-1LPV^R5μM = format: cell-based; details: HIV-1LPV^R5μM compared to wild-type HIV-1NL4–3
[3] = tested on: multidrug-resistant HIV-1 variants; experiment: microbe, parasite or virus in culture; format: cell-based; details: Human immunodeficiency virus 1, read-out: antiviral IC50, range over variants

For `COc1ccc(S(=O)(=O)N(CC(C)C)C[C@@H](O)[C@H](Cc2ccccc2)NC(=O)O[C@@H]2C[C@@H]3NC(=O)O[C@@H]3C2)cc1` [Inhibitor 4a, (3aS,5R,6aR)-2-Oxohexahydro-2H-cyclopenta[d]oxazol-5-yl ((2S,3R)-3-Hydroxy-4-((N-isobutyl-4-methoxyphenyl)-sulfonamido)-1-phenylbutan-2-yl)carbamate], the selectivity index (MT-4 cells) was >2070.
With `C=C(C)CN1C(=O)O[C@@H]2C[C@H](OC(=O)N[C@@H](Cc3ccccc3)[C@H](O)CN(CC(C)C)S(=O)(=O)c3ccc(OC)cc3)C[C@@H]21` [Inhibitor 4k, (3aS,5R,6aR)-3-(2-Methylallyl)-2-oxohexahydro-2H-cyclopenta[d]oxazol-5-yl ((2S,3R)-3-Hydroxy-4-((N-isobutyl-4-methoxyphenyl)sulfonamido)-1-phenylbutan-2-yl)carbamate] the IC50 (HIV-1NL4–3 [1]) was 0.031 µM, the “IC50 fold-change (in parentheses)” value (HIV-1APV^R5 μM) was 11 and the IC50 (HIV-1NL4–3 [2]) was 0.023 ± 0.0001 µM. The “IC50 fold-change (in parentheses)” value (HIV-1ATV^R5μM) was 1 and the selectivity index (MT-4 cells) was >3226.
With `COc1ccc(S(=O)(=O)N(CC(C)C)C[C@@H](O)[C@H](Cc2ccccc2)NC(=O)O[C@@H]2C[C@@H]3OC(=O)N(C)[C@@H]3C2)cc1` [Inhibitor 4d, (3aR,5S,6aS)-3-Methyl-2-oxohexahydro-2H-cyclopenta[d]-oxazol-5-yl ((2S,3R)-3-Hydroxy-4-((N-isobutyl-4-methoxyphenyl)sulfonamido)-1-phenylbutan-2-yl)carbamate] the selectivity index (MT-4 cells) was >229.
In the case of `COc1ccc(S(=O)(=O)N(CC(C)C)C[C@@H](O)[C@H](Cc2ccccc2)NC(=O)O[C@H]2C[C@H]3OC(=O)N(C)[C@H]3C2)cc1` [Inhibitor 4c, (3aS,5R,6aR)-3-Methyl-2-oxohexahydro-2H-cyclopenta[d]-oxazol-5-yl ((2S,3R)-3-Hydroxy-4-((N-isobutyl-4-methoxyphenyl)sulfonamido)-1-phenylbutan-2-yl)carbamate], the CC50 (in vitro) is reported as > 100 µM and the selectivity index (MT-4 cells) is reported as >2778.
In the case of `COc1ccc(S(=O)(=O)N(CC(C)C)C[C@@H](O)[C@H](Cc2ccccc2)NC(=O)O[C@H]2C[C@H]3OC(=O)N(CC(C)C)[C@H]3C2)cc1` [Inhibitor 4l, (3aS,5R,6aR)-3-Isobutyl-2-oxohexahydro-2H-cyclopenta[d]-oxazol-5-yl ((2S,3R)-3-Hydroxy-4-((N-isobutyl-4-methoxyphenyl)sulfonamido)-1-phenylbutan-2-yl)carbamate], the “IC50 fold-change (in parentheses)” value (HIV-1APV^R5 μM) is reported as 7, the “IC50 fold-change (in parentheses)” value (HIV-1LPV^R5μM) is reported as 15 and the “IC50 fold-change (in parentheses)” value (HIV-1ATV^R5μM) is reported as 1. For the same compound, the selectivity index (MT-4 cells) was >2439 and the IC50 [3] was 0.033 to 0.615 µM.
In the case of `CC(C)CN(C[C@@H](O)[C@H](Cc1ccccc1)NC(=O)O[C@H]1CO[C@H]2OCC[C@H]21)S(=O)(=O)c1ccc(N)cc1` [DRV, darunavir, reference compound], the IC50 (HIV-1NL4–3 [2]) is reported as 0.0035 ± 9e-05 µM.
